Three compounds from ChEMBL document CHEMBL2040762, “Hypnotic effects and GABAergic mechanism of licorice (Glycyrrhiza glabra) ethanol extract and its major flavonoid constituent glabrol” (Bioorg Med Chem, 2012) can be followed below.

Assay [1] relates to Mus musculus. Kind of assay: Hypnotic activity in fasted C57BL/6N mouse assessed as increase in pentobarbital-induced sleep duration at 50 mg/kg, po administered 45 mins prior to pentobarbital-induction by polysomnographic analysis. Format: functional, organism-based. The arrangement: dose 50 mg/kg.
Assay [2] concerns Mus musculus. Nature of the assay: Hypnotic activity in fasted C57BL/6N mouse assessed as […] in latency of pentobarbital-induced sleep at 50 mg/kg, po administered 45 mins prior to pentobarbital-induction by polysomnographic analysis. On the set-up: dose 50 mg/kg. The format is functional, organism-based.
The subject of assay [3] is Mus musculus. Nature of the assay: Hypnotic activity in fasted C57BL/6N mouse assessed as decrease in latency of pentobarbital-induced sleep at 50 mg/kg, po administered 45 mins prior to pentobarbital-induction coadministered with flumazenil by polysomnographic analysis. Format: functional, organism-based. On the set-up: dose 50 mg/kg.
The test system of assay [4] is Mus musculus. Nature of the assay: Hypnotic activity in po dosed fasted C57BL/6N mouse assessed as increase in pentobarbital-induced sleep duration administered 45 mins prior to pentobarbital-induction by polysomnographic analysis. Format: functional, organism-based.
Assay [5] concerns Mus musculus. Nature of the assay: Hypnotic activity in po dosed fasted C57BL/6N mouse assessed as decrease in latency of pentobarbital-induced sleep administered 45 mins prior to pentobarbital-induction by polysomnographic analysis. The format is functional, organism-based.
Assay [6] in a line: Displacement of [3H]flumazenil from GABA(A)-BZD receptor in Sprague-Dawley rat cerebral cortex membranes after 40 mins by liquid scintillation counting. Format: cell membranes, Membrane.
Assay [7] deals with Mus musculus. Nature of the assay: Hypnotic activity in fasted C57BL/6N mouse assessed as increase in pentobarbital-induced sleep duration at 50 mg/kg, po administered 45 mins prior to pentobarbital-induction coadministered with flumazenil by polysomnographic analysis. Format: functional, organism-based. The arrangement: dose 50 mg/kg.
Assay [8] has as its system Mus musculus. Kind of assay: Hypnotic activity in fasted C57BL/6N mouse assessed as increase in pentobarbital-induced sleep duration at 10 mg/kg, po administered 45 mins prior to pentobarbital-induction by polysomnographic analysis. The format is functional, organism-based. On the set-up: dose 10 mg/kg.
Assay [9] has as its system Mus musculus. Kind of assay: Hypnotic activity in fasted C57BL/6N mouse assessed as increase in pentobarbital-induced sleep duration at 2.5 mg/kg, po administered 45 mins prior to pentobarbital-induction coadministered with flumazenil by polysomnographic analysis. Format: functional, organism-based. The arrangement: dose 2.5 mg/kg.
Assay [10] concerns Mus musculus. Nature of the assay: Hypnotic activity in fasted C57BL/6N mouse assessed as decrease in pentobarbital-induced sleep latency at 10 mg/kg, po administered 45 mins prior to pentobarbital-induction coadministered with flumazenil by polysomnographic analysis. Format: functional, organism-based. The arrangement: dose 10 mg/kg.
The test system of assay [11] is Mus musculus. Nature of the assay: Hypnotic activity in fasted C57BL/6N mouse assessed as increase in pentobarbital-induced sleep duration at 10 mg/kg, po administered 45 mins prior to pentobarbital-induction coadministered with flumazenil by polysomnographic analysis. The format is functional, organism-based. On the set-up: dose 10 mg/kg.
In assay [12] the test system is Mus musculus. Kind of assay: Hypnotic activity in fasted C57BL/6N mouse assessed as […] in latency of pentobarbital-induced sleep at 10 mg/kg, po administered 45 mins prior to pentobarbital-induction by polysomnographic analysis. The format is functional, organism-based. On the set-up: dose 10 mg/kg.
For assay [13], the system named is Mus musculus. Kind of assay: Hypnotic activity in po dosed fasted C57BL/6N mouse assessed as decrease in latency of pentobarbital-induced sleep at 2 mg/kg, po administered 45 mins prior to pentobarbital-induction by polysomnographic analysis. Format: functional, organism-based. The arrangement: dose 2 mg/kg.
In assay [14] the test system is Mus musculus. Nature of the assay: Hypnotic activity in po dosed fasted C57BL/6N mouse assessed as decrease in pentobarbital-induced non-rapid eye movement sleep duration at 2 mg/kg, po administered 45 mins prior to pentobarbital-induction by polysomnographic analysis. The arrangement: dose 2 mg/kg. Format: functional, organism-based.
The test system of assay [15] is Mus musculus. Kind of assay: Hypnotic activity in fasted C57BL/6N mouse assessed as decrease in pentobarbital-induced sleep latency at 2 mg/kg, po administered 45 mins prior to pentobarbital-induction coadministered with flumazenil by polysomnographic analysis. The arrangement: dose 2 mg/kg. The format is functional, organism-based.
Assay [16] concerns Mus musculus. Kind of assay: Hypnotic activity in po dosed fasted C57BL/6N mouse assessed as increase in pentobarbital-induced non-rapid eye movement sleep duration at 2 mg/kg, po administered 45 mins prior to pentobarbital-induction measured up to 2 hrs by polysomnographic analysis. Format: functional, organism-based. The arrangement: dose 2 mg/kg.
Assay [17] relates to Mus musculus. Kind of assay: Hypnotic activity in po dosed fasted C57BL/6N mouse assessed as effect on pentobarbital-induced rapid eye movement sleep duration at 2 mg/kg, po administered 45 mins prior to pentobarbital-induction by polysomnographic analysis. The format is functional, organism-based. On the set-up: dose 2 mg/kg.
The subject of assay [18] is Mus musculus. Nature of the assay: Hypnotic activity in fasted C57BL/6N mouse assessed as increase in pentobarbital-induced sleep duration at 2 mg/kg, po administered 45 mins prior to pentobarbital-induction coadministered with flumazenil by polysomnographic analysis. Format: functional, organism-based. On the set-up: dose 2 mg/kg.
Assay [19] deals with Mus musculus. Nature of the assay: Hypnotic activity in po dosed fasted C57BL/6N mouse assessed as change in pentobarbital-induced rapid eye movement sleep duration at 2 mg/kg, po administered 45 mins prior to pentobarbital-induction measured up to 3 hrs by polysomnographic analysis. On the set-up: dose 2 mg/kg. Format: functional, organism-based.
The subject of assay [20] is Mus musculus. Nature of the assay: Hypnotic activity in po dosed fasted C57BL/6N mouse assessed as change in pentobarbital-induced non-rapid eye movement sleep duration at 2 mg/kg, po administered 45 mins prior to pentobarbital-induction measured up to 3 hrs by polysomnographic analysis. Format: functional, organism-based. On the set-up: dose 2 mg/kg.
The test system of assay [21] is Mus musculus. Kind of assay: Hypnotic activity in fasted C57BL/6N mouse assessed as increase in pentobarbital-induced sleep duration at 0.5 mg/kg, po administered 45 mins prior to pentobarbital-induction coadministered with flumazenil by polysomnographic analysis. Format: functional, organism-based. On the set-up: dose 0.5 mg/kg.
Assay [22] relates to Mus musculus. Nature of the assay: Hypnotic activity in po dosed fasted C57BL/6N mouse assessed as decrease in pentobarbital-induced non-rapid eye movement sleep EEG delta activity at 2 mg/kg, po administered 45 mins prior to pentobarbital-induction by polysomnographic analysis. On the set-up: dose 2 mg/kg. The format is functional, organism-based.

Calls of active or inactive are those of the source. The calls are words filed in the database; no cut-off is given here.

By Ki is commonly meant the equilibrium dissociation constant of an inhibitor or competing ligand from its target. As for `CC(C)=CCc1cc([C@@H]2CC(=O)c3ccc(O)c(CC=C(C)C)c3O2)ccc1O` [GLABROL], the result in assay [1] and in assay [2] was Active. The result in [3] and in assay [7] was inactive. For the same compound, the Activity entry in assay [4] and in assay [5] was “Dose-dependent effect” in each case. This compound had a Ki in assay [6] of 1630 nM.

As for `Cc1ccc(-c2nc3ccc(C)cn3c2CC(=O)N(C)C)cc1`, the result in [8] and in [12] was Active. Further, the outcome in assay [9], in assay [10] and in [11] was inactive.

For `CN1C(=O)CN=C(c2ccccc2)c2cc(Cl)ccc21`, the outcome in [13], in assay [14], in assay [16] and in [22] was Active. The result in [15], in [17], in [18], in assay [19], in [20] and in [21] was inactive.
